Test results: patent US5716797A, “Stable two-part reagent for the measurement of creatine kinase activity” (Wako Pure Chemical Industries, Ltd., priority 1995, dated 1998)

Columns and labels:
[1] = Solubility of SH compounds in the enzyme solution; settings: as CK reactivator in the enzyme solution
[2] = molecular target: T1, creatine kinase (CK) in human serum (Homo sapiens, UniProt P06732); assay: Inhibitory effect of oxidized products of SH compounds on CK activity (HK/G6PDH UV method, NAC 26 mM as reactivator); format: biochemical; settings: for CK activity value: NAC 26 mM, 37° C.
T1 construct: Five fresh human serum samples were used; from tissue; host or cells: fresh human serum
Procedure: Investigation on the inhibitory effect of oxidized products of SH compounds on CK activity
Thus, oxidized products of the SH compounds, respectively, were obtained.
NAC (26 mM) as CK reactivator, each 5 mM of SH compound oxidized product obtained above, 2.6 mM of ADP, 3.9 u/ml of HK (available from Oriental Yeast Co., Ltd.), 8.0 u/ml of G6PDH (available from Oriental Yeast Co., Ltd.), 2.6 mM of NADP, 21 mM of glucose, 10 mM of magnesium acetate, 6.5 mM of AMP, 0.013 mM of APSA, 0.1% (w/v) of sodium azide and 2 mM of EDTA-2Na were dissolved in 128 mM imidazole-acetate buffer (pH 6.7). The thus obtained solutions were adjusted to pH 6.7 with sodium hydroxide to obtain enzyme solutions.
An enzyme solution containing no SH compound oxidized product was prepared as a control standard solution.
Five fresh human serum samples were used.
To 8 μl of each sample was added 320 μl of each enzyme solution, followed by preincubation for 5 minutes. Then, 80 μl of the substrate solution was added to initiate the reaction and the change of absorbance per minute was measured for 3 minutes from 2 minutes after the addition of the substrate solution. The CK activity value was calculated from the molecular extinction coefficient of the NADPH produced.
As a measuring apparatus, an Autoanalyzer Hitachi Model 7150 was used, and the measurement was carried out at 37° C. by use of dual wavelength (λ1 =405 nm, λ2 =340 nm).
Tables 2 and 3 show the CK activity values of the 5 samples in each case and the average thereof.

CK activity = settings: Scand. J. Clin. Lab. Invest. 39, 737-742 (1979); cited from earlier work

T1 sequence (P06732 whole entry): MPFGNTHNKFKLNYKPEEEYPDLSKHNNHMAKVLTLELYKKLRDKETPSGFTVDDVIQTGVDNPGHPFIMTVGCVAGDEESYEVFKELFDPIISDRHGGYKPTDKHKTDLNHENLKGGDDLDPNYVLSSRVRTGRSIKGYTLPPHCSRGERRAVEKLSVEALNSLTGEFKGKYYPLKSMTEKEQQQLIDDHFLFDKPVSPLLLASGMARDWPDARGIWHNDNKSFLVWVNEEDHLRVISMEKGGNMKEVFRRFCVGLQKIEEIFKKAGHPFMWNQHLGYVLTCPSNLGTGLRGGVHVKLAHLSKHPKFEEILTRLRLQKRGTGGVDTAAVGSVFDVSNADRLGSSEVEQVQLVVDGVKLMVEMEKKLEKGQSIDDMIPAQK

SMILES | solubility [1] | CK activity value ([2]; Sample 1 (fresh human serum), 5 mM SH compound oxidized product) [IU/l.] | CK activity value ([2]; Sample 2, 5 mM SH compound oxidized product) [IU/l.] | CK activity value ([2]; Sample 3, 5 mM SH compound oxidized product) [IU/l.] | CK activity value ([2]; Sample 4, 5 mM SH compound oxidized product) [IU/l.] | CK activity value ([2]; Sample 5, 5 mM SH compound oxidized product) [IU/l.] | CK activity value, Average ([2]; average of 5 samples, 5 mM SH compound oxidized product) [IU/l.] | activity at 5000 µM ([2]; average with enzyme solution containing no SH compound oxidized product = 100%, 5 mM oxidized product, read-out: CK activity, relative value) [%] | effect on CK activity (CK activity)
Nc1cc(O)nc(S)n1.O [AHMP, 4-amino-6-hydroxy-2-mercaptopyrimidine monohydrate] | low solubility | – | – | – | – | – | – | – | –
CC(=O)N[C@@H](CSSC[C@H](NC(C)=O)C(=O)O)C(=O)O [NAC oxidized product] | – | 124 | 342 | 87 | 272 | 80 | 181 | 80.1 | inhibits CK activity
